According to patent publication US8895032B2, “Dendritic nano-antioxidants” (Central Michigan University, priority 2009, dated 2014):
Several values for one entry are separate records, joined by “and”; a condition that tells them apart may be missing. Identical values can stand only once. Like-named read-outs stand apart in the source and are kept apart here.

Assays:
DPPH radical assay = settings: for time to reach plateau / steady state with DPPH•: 50 μM syringaldehyde, 12.5 μM Trolox and ascorbic acid, methanol, room temperature, 515 nm; for IC50: read-out: DPPH IC50 at 120 min, Example 15
[1] = ABTS radical cation decolorization assay; format: biochemical; settings: for IC50: final concentration in the cuvet, read-out: concentration at which 50% inhibition of ABTS•+ was observed; for Slope of % decrease in absorbance at 6 min versus antioxidant concentration: linear regression, concentration in μM; for TEAC: slope divided by that of Trolox, % decrease in A734 at 6 min, ethanol
Text: We have tested AO activity of G1 (13) using ABTS as a radical source using a previously reported spectroscopic assay. The AO activity of the G1 (13) was compared to those of syringaldehyde, gallic acid, and vitamin C. If the phenolic OH group is the radical scavenging site, the expected AO activity of the G1 (13) should be 4 fold higher than that of syringaldehyde and 1.3 fold higher than that of gallic acid (which has three phenolic OH groups).
ABTS radical cation decolorization assay was used as previously described (Ozgen, et al. J. Agric. Food Chem. 2006, 54, 1151-1157, incorporated herein by reference in its entirety). Like the DPPH assay, this was also a decolorization assay and measured absorbance decrease at 734 nm as the ABTS radical (ABTS•+) is quenched by the antioxidant. The solvent used for the assay was ethanol. ABTS reagent was added to 1.0 mL solvent in a cuvet to bring the absorbance to 0.7. A 10 μL sample of antioxidant was then added, mixed, and the absorbance monitored at 734 nm for 6 min. Antioxidant concentrations were 14.4 μM Trolox, 11.4 μM ascorbic acid, 15.4 μM syringaldehyde, and 3 μM compound 1. The % decrease in absorbance at 6 min was plotted against antioxidant concentrations. The gradient of the line obtained by linear regression for a given antioxidant was divided by that obtained for Trolox to yield Trolox equivalent antioxidant (TEAC) values. All samples were made in ethanol and run in triplicates and at room temperature.

[2] = FRAP assay (reduction of Fe(III) to Fe(II)); format: biochemical; set-up: Slope of ΔA593 versus concentration: unit not given here; settings: for Slope of ΔA593 versus concentration: 37° C.
Description: The FRAP assay was performed as previously described (Pulido, et al. J. Agric. Food Chem. 2000, 48, 3396-3402, incorporated herein by reference in its entirety). In the FRAP assay, ferric was reduced by the antioxidant to ferrous via electron transfer (Benzie et al., Anal. Biochem. 1996, 239, 70-76, incorporated herein by reference in its entirety). This assay measured the redox potential of an antioxidant which is used as an estimate of antioxidant efficiency and expressed as a FRAP value. […] The compound 1 as well as the other antioxidants was dissolved in methanol. […] Reaction kinetics of the compound 1 and other antioxidants were obtained by plotting the change in slopes at various times and are shown in FIG. 18. […] This time-dependent increase in absorbance was previously reported (Pulido, et al. J. Agric. Food Chem. 2000, 48, 3396-3402, incorporated herein by reference in its entirety) and was especially significant with polyphenolic compounds. […] However, the FRAP value increased with time, reaching 2.5 in 60 min. […] J. Agric. Food Chem. 2000, 48, 3396-3402, incorporated herein by reference in its entirety). […] EC1 values, and therefore ferric reducing ability, were lower at longer reaction times as expected from the kinetic behavior of the antioxidants (Pulido, et al. J. Agric. Food Chem. 2000, 48, 3396-3402, incorporated herein by reference in its entirety).

Row | IC50 (DPPH radical assay) | IC50 [1] | SMILES | # of DDPH• reduced per antioxidant molecule (1/stoichiometry) (DPPH radical assay) | Antioxidant Capacity Relative to Trolox, DPPH (DPPH radical assay) | time to reach plateau / steady state with DPPH• (DPPH radical assay; 5 μM compound 1) | Antioxidant Capacity Relative to Trolox, ABTS [1] | Slope of % decrease in absorbance at 6 min versus antioxidant concentration [1] | TEAC [1] | Antioxidant Capacity Relative to Trolox, FRAP 5 min ([2]; 5 min) | EC1 (concentration with ferric-TPTZ reducing ability equivalent to 1 mM FeSO4.7H2O) ([2]; 5 min) | FRAP value relative to Fe(II) ([2]; 5 min) | FRAP value relative to Fe(II) ([2]; 15 min) | FRAP value relative to Fe(II) ([2]; 30 min) | Antioxidant Capacity Relative to Trolox, FRAP 60 min ([2]; 60 min) | EC1 (concentration with ferric-TPTZ reducing ability equivalent to 1 mM FeSO4.7H2O) ([2]; 60 min) | FRAP value relative to Fe(II) ([2]; 60 min) | Slope of ΔA593 versus concentration ([2]; Reaction time 5 min) | Slope of ΔA593 versus concentration ([2]; Reaction time 15 min) | Slope of ΔA593 versus concentration ([2]; Reaction time 30 min) | Slope of ΔA593 versus concentration ([2]; Reaction time 60 min) | other results
1 | 4 µM | ~1.5 µM | COc1cc(CN(Cc2ccc(CN(Cc3cc(OC)c(O)c(OC)c3)Cc3cc(OC)c(O)c(OC)c3)cc2)Cc2cc(OC)c(O)c(OC)c2)cc(OC)c1O [Compound 1] | 8.8 | 4.9 | approximately 45 min | 8.5 | 33.9 | 8.48 | 6.1 | 74 µM | 13.5 | 14.6 | 15.1 | 7.2 | 63 µM | 15.8 | 0.163 | 0.175 | 0.182 | 0.190 | DPPH• remaining at plateau (DPPH radical assay; 5 μM compound 1): 46%; DPPH• remaining in two minutes (DPPH radical assay; 5 μM compound 1): 60%; decrease in DDPH• (DPPH radical assay; 5 μM solution): 60%; Antioxidant Capacity Relative to Trolox, DPPH (DPPH radical assay; listed as compound 1): ~5 and 4.9; DPPH antioxidant capacity, times better than ascorbic acid (DPPH radical assay; listed as compound 1): ~5 times and 4.9 times; AO activity higher than that of gallic acid ([1]; ABTS as radical source): 3 fold; AO activity higher than that of syringaldehyde ([1]; ABTS as radical source): 7 fold; AO activity higher than that of vitamin C ([1]; ABTS as radical source): 7.6 fold; ABTS, times better than ascorbic acid ([1]; based on TEAC): 9.4 times; ABTS, times better than syringaldehyde ([1]; based on TEAC): 8.7 times; FRAP, times better than ascorbic acid ([2]; 5 min): 6.7 times; Antioxidant Capacity Relative to Trolox, FRAP 5 min ([2]; 5 min, listed as compound 1): ~6 and 6.1; FRAP ratio to syringaldehyde ([2]; 5 min, listed as compound 1): ~2.6 times and 2.7 times; FRAP ratio to syringaldehyde ([2]; 60 min): 1.7 times; FRAP, times better than ascorbic acid ([2]; 60 min): 6.5 times; Antioxidant Capacity Relative to Trolox, FRAP 60 min ([2]; 60 min, listed as compound 1): ~7 and 7.2
2 | 30 µM | ~10 µM | Cc1c(C)c2c(c(C)c1O)CCC(C)(C(=O)O)O2 (stereo not shown) [Trolox, 6-hydroxy-2,5,7,8-tetramethylchroman-2-carboxylic acid] | 1.8 | 1 | ≤ 2 min | 1 | 4 | 1 | 1 | 450 µM | 2.2 | 2.2 | 2.2 | 1 | 449 µM | 2.2 | 0.0268 | 0.0269 | 0.0269 | 0.0269 | time to reach a plateau of ABTS•+ absorbance suppression ([1]; 14.4 μM Trolox, 11.4 μM ascorbic acid): one; FRAP value, did not change with time ([2]; testing period 60 min): 2.2
